Measurements: patent US10508104B2, “6-hydroxy-5-(phenyl/heteroarylsulfonyl)pyrimidin-4(1H)-one as APJ agonists” (Bristol-Myers Squibb Company, priority 2016, dated 2019)

molecular target: human APJ receptor (Homo sapiens (Human), UniProt P35414); experiment: Intracellular cAMP accumulation assay (APJ hcAMP, HTRF); format: cell-based; conditions: HEK293 cells stably expressing human APJ receptor; inhibition of forskolin-mediated cAMP production; read-out: Human APJ cAMP EC50 Potency range
Summary of the method: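 HEK293 cells stably expressing human APJ, 5,000 per well, incubated 30 min at rt with compound, […] and 2 μM forskolin. cAMP measured by HTRF against a cAMP standard curve as inhibition of forskolin-driven production. EC50 from variable-slope sigmoidal fit.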

human APJ receptor, sequence (P35414 whole entry): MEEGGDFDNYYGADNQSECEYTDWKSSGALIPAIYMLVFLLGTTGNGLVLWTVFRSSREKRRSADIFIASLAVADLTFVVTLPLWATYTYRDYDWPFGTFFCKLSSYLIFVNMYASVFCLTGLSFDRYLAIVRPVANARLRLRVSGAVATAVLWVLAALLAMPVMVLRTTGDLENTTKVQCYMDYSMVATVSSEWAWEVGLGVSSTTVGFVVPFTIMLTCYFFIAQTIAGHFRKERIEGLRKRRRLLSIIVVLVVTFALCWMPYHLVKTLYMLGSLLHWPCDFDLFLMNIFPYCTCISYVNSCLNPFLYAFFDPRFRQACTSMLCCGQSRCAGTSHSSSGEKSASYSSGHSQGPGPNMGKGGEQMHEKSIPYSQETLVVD

Row | SMILES | EC50 [nM]
1 | COC[C@@H](c1cc(F)cc(F)c1)n1c(COC(C)C)nc(=O)c(S(=O)(=O)c2ccc(-c3ccccc3C(N)=O)cc2)c1O [Example 392, 4′-({1-[(1R)-1-(3,5-difluorophenyl)-2-methoxyethyl]-6-hydroxy-4-oxo-2-[(propan-2-yloxy)methyl]-1,4-dihydropyrimidin-5-yl}sulfonyl)-[1,1′-biphenyl]-2-carboxamide] | 0.01 to 10
2 | COC[C@@H](c1cccc(C#N)c1)n1c(COC(C)C)nc(=O)c(S(=O)(=O)c2ccc(-c3cn(C)nc3C)cc2)c1O [Example 393, 3-[(1R)-1-{5-[4-(1,3-dimethyl-1H-pyrazol-4-yl)benzenesulfonyl]-6-hydroxy-4-oxo-2-[(propan-2-yloxy)methyl]-1,4-dihydropyrimidin-1-yl}-2-methoxyethyl]benzonitrile] | 0.01 to 10
3 | COC[C@@H](c1cccc(C#N)c1)n1c(COC(C)C)nc(=O)c(S(=O)(=O)c2ccc(-c3c[nH]nc3C)cc2)c1O [Example 394, 3-[(1R)-1-{6-hydroxy-5-[4-(3-methyl-1H-pyrazol-4-yl)benzenesulfonyl]-4-oxo-2-[(propan-2-yloxy)methyl]-1,4-dihydropyrimidin-1-yl}-2-methoxyethyl]benzonitrile] | 0.01 to 10
4 | COC[C@@H](c1cccc(C#N)c1)n1c(COC(C)C)nc(=O)c(S(=O)(=O)c2ccc(-c3ccnc(F)c3C)cc2)c1O [Example 395, 3-[(1R)-1-{5-[4-(2-fluoro-3-methylpyridin-4-yl)benzenesulfonyl]-6-hydroxy-4-oxo-2-[(propan-2-yloxy)methyl]-1,4-dihydropyrimidin-1-yl}-2-methoxyethyl]benzonitrile] | 0.01 to 10
5 | COC[C@@H](c1cc(F)cc(F)c1)n1c(COC(C)C)nc(=O)c(S(=O)(=O)c2ccc(-c3cn(C)nc3C)cc2)c1O [Example 396, 1-[(1R)-1-(3,5-difluorophenyl)-2-methoxyethyl]-5-[4-(1,3-dimethyl-1H-pyrazol-4-yl)benzenesulfonyl]-6-hydroxy-2-[(propan-2-yloxy)methyl]-1,4-dihydropyrimidin-4-one] | 0.01 to 10
6 | COC[C@@H](c1cc(F)cc(F)c1)n1c(COC(C)C)nc(=O)c(S(=O)(=O)c2ccc(-c3cnn(C)c3C)cc2)c1O [Example 397, 1-[(1R)-1-(3,5-difluorophenyl)-2-methoxyethyl]-5-[4-(1,5-dimethyl-1H-pyrazol-4-yl)benzenesulfonyl]-6-hydroxy-2-[(propan-2-yloxy)methyl]-1,4-dihydropyrimidin-4-one] | 0.01 to 10
7 | COC[C@@H](c1cc(F)cc(F)c1)n1c(COC(C)C)nc(=O)c(S(=O)(=O)c2ccc(-c3ccncc3C#N)cc2)c1O [Example 398, 4-[4-({1-[(1R)-1-(3,5-difluorophenyl)-2-methoxyethyl]-6-hydroxy-4-oxo-2-[(propan-2-yIoxy)methyl]-1,4-dihydropyrimidin-5-yl}sulfonyl)phenyl] pyridine-3-carbonitrile] | 0.01 to 10
8 | COC[C@@H](c1cccc(C#N)c1)n1c(COC(C)C)nc(=O)c(S(=O)(=O)c2ccc(-c3ccccc3C(N)=O)cc2)c1O [Example 399, 4′-({1-[(1R)-1-(3-cyanophenyl)-2-methoxyethyl]-6-hydroxy-4-oxo-2-[(propan-2-yloxy)methyl]-1,4-dihydropyrimidin-5-yl}sulfonyl)-[1,1′-biphenyl]-2-carboxamide] | 0.01 to 10
9 | CC[C@@H](c1cccc(C#N)c1)n1c(COC(C)C)nc(=O)c(S(=O)(=O)c2ccc(-c3ccccc3C(N)=O)cc2)c1O [Example 400, 4′-({1-[(1S)-1-(3-cyanophenyl)propyl]-6-hydroxy-4-oxo-2-[(propan-2-yloxy)methyl]-1,4-dihydropyrimidin-5-yl}sulfonyl)-[1,1′-biphenyl]-2-carboxamide] | 0.01 to 10
10 | CCOCc1nc(=O)c(S(=O)(=O)c2ccc(-c3ccccc3C(N)=O)c(F)c2)c(O)n1C(COC)c1cccc(F)c1 (stereo not shown) [Example 401, 4′-{[2-(ethoxymethyl)-1-[1-(3-fluorophenyl)-2-methoxyethyl]-6-hydroxy-4-oxo-1,4-dihydropyrimidin-5-yl]sulfonyl}-2′-fluoro-[1,1′-biphenyl]-2-carboxamide] | 0.01 to 10

Continued, values first:

Row | EC50 [nM] | SMILES
11 | 0.01 to 10 | COC[C@@H](c1cc(F)cc(F)c1)n1c(COC(C)C)nc(=O)c(S(=O)(=O)c2ccc(-c3ccncc3C)cc2)c1O [Example 377, 1-[(1R)-1-(3,5-difluorophenyl)-2-methoxyethyl]-6-hydroxy-5-[4-(3-methylpyridin-4-yl)benzenesulfonyl]-2-[(propan-2-yloxy)methyl]-1,4-dihydropyrimidin-4-one]
12 | 0.01 to 10 | COC[C@@H](c1cc(F)cc(F)c1)n1c(COC(C)C)nc(=O)c(S(=O)(=O)c2ccc(-c3ccnc(F)c3C)cc2)c1O [Example 378, 1-[(1R)-1-(3,5-difluorophenyl)-2-methoxyethyl]-5-[4-(2-fluoro-3-methylpyridin-4-yl)benzenesulfonyl]-6-hydroxy-2-[(propan-2-yloxy)methyl]-1,4-dihydropyrimidin-4-one]
13 | 0.01 to 10 | COC[C@@H](c1cc(F)cc(F)c1)n1c(COC(C)C)nc(=O)c(S(=O)(=O)c2ccc(-c3cccnc3C)cc2)c1O [Example 379, 1-[(1R)-1-(3,5-difluorophenyl)-2-methoxyethyl]-6-hydroxy-5-[4-(2-methylpyridin-3-yl)benzenesulfonyl]-2-[(propan-2-yloxy)methyl]-1,4-dihydropyrimidin-4-one]
14 | 0.01 to 10 | COC[C@@H](c1cc(F)cc(F)c1)n1c(COC(C)C)nc(=O)c(S(=O)(=O)c2ccc(-c3ccc(F)nc3C)cc2)c1O [Example 380, 1-[(1R)-1-(3,5-difluorophenyl)-2-methoxyethyl]-5-[4-(6-fluoro-2-methylpyridin-3-yl)benzenesulfonyl]-6-hydroxy-2-[(propan-2-yloxy)methyl]-1,4-dihydropyrimidin-4-one]
15 | 0.01 to 10 | CC[C@@H](c1cccc(C#N)c1)n1c(COC(C)C)nc(=O)c(S(=O)(=O)c2ccc(-c3ccnc(F)c3C)cc2)c1O [Example 381, 3-[(1S)-1-{5-[4-(2-fluoro-3-methylpyridin-4-yl)benzenesulfonyl]-6-hydroxy-4-oxo-2-[(propan-2-yloxy)methyl]-1,4-dihydropyrimidin-1-yl}propyl]benzonitrile]
16 | 0.01 to 10 | CC[C@@H](c1cccc(C#N)c1)n1c(COC(C)C)nc(=O)c(S(=O)(=O)c2ccc(-c3ccc(F)nc3C)cc2)c1O [Example 382, 3-[(1S)-1-{5-[4-(6-fluoro-2-methylpyridin-3-yl)benzenesulfonyl]-6-hydroxy-4-oxo-2-[(propan-2-yloxy)methyl]-1,4-dihydropyrimidin-1-yl}propyl]benzonitrile]
17 | 0.01 to 10 | CC[C@@H](c1cccc(C#N)c1)n1c(COC(C)C)nc(=O)c(S(=O)(=O)c2ccc(-c3ccncc3C)cc2)c1O [Example 383, 3-[(1S)-1-{6-hydroxy-5-[4-(3-methylpyridin-4-yl)benzenesulfonyl]-4-oxo-2-[(propan-2-yloxy)methyl]-1,4-dihydropyrimidin-1-yl}propyl]benzonitrile]
18 | 0.01 to 10 | CC[C@@H](c1cccc(C#N)c1)n1c(COC(C)C)nc(=O)c(S(=O)(=O)c2ccc(-c3cccnc3C)cc2)c1O [Example 384, 3-[(1S)-1-{6-hydroxy-5-[4-(2-methylpyridin-3-yl)benzenesulfonyl]-4-oxo-2-[(propan-2-yloxy)methyl]-1,4-dihydropyrimidin-1-yl}propyl]benzonitrile]
19 | 0.01 to 10 | CCOCc1nc(=O)c(S(=O)(=O)c2ccc(-c3ccc(F)nc3C)cc2)c(O)n1[C@@H](COC)c1cc(F)cc(F)c1 [Example 385, 1-[(1R)-1-(3,5-difluorophenyl)-2-methoxyethyl]-2-(ethoxymethyl)-5-[4-(6-fluoro-2-methylpyridin-3-yl)benzenesulfonyl]-6-hydroxy-1,4-dihydropyrimidin-4-one]
20 | 0.01 to 10 | CCOCc1nc(=O)c(S(=O)(=O)c2ccc(-c3cccnc3C)cc2)c(O)n1[C@@H](COC)c1cc(F)cc(F)c1 [Example 386, 1-[(1R)-1-(3,5-difluorophenyl)-2-methoxyethyl]-2-(ethoxymethyl)-6-hydroxy-5-[4-(2-methylpyridin-3-yl)benzenesulfonyl]-1,4-dihydropyrimidin-4-one]
21 | 0.01 to 10 | CCOCc1nc(=O)c(S(=O)(=O)c2ccc(-c3ccncc3C)cc2)c(O)n1[C@@H](COC)c1cc(F)cc(F)c1 [Example 387, 1-[(1R)-1-(3,5-difluorophenyl)-2-methoxyethyl]-2-(ethoxymethyl)-6-hydroxy-5-[4-(3-methylpyridin-4-yl)benzenesulfonyl]-1,4-dihydropyrimidin-4-one]
22 | 0.01 to 10 | CCOCc1nc(=O)c(S(=O)(=O)c2ccc(-c3ccnc(F)c3C)cc2)c(O)n1[C@@H](COC)c1cc(F)cc(F)c1 [Example 388, 1-[(1R)-1-(3,5-difluorophenyl)-2-methoxyethyl]-2-(ethoxymethyl)-5-[4-(2-fluoro-3-methylpyridin-4-yl)benzenesulfonyl]-6-hydroxy-1,4-dihydropyrimidin-4-one]
23 | 0.01 to 10 | COC[C@@H](c1cccc(C#N)c1)n1c(COC(C)C)nc(=O)c(S(=O)(=O)c2ccc(-c3ccc(F)nc3C)cc2)c1O [Example 389, 3-[(1R)-1-{5-[4-(6-fluoro-2-methylpyridin-3-yl)benzenesulfonyl]-6-hydroxy-4-oxo-2-[(propan-2-yloxy)methyl]-1,4-dihydropyrimidin-1-yl}-2-methoxyethyl]benzonitrile]
24 | 0.01 to 10 | COC[C@@H](c1cccc(C#N)c1)n1c(COC(C)C)nc(=O)c(S(=O)(=O)c2ccc(-c3cccnc3C)cc2)c1O [Example 390, 3-[(1R)-1-{6-hydroxy-5-[4-(2-methylpyridin-3-yl)benzenesulfonyl]-4-oxo-2-[(propan-2-yloxy)methyl]-1,4-dihydropyrimidin-1-yl}-2-methoxyethyl]benzonitrile]
25 | 0.01 to 10 | COC[C@@H](c1cc(F)cc(F)c1)n1c(COC(C)C)nc(=O)c(S(=O)(=O)c2ccc(-c3cncc(C#N)c3)cc2)c1O [Example 391, 5-[4-({1-[(1R)-1-(3,5-difluorophenyl)-2-methoxyethyl]-6-hydroxy-4-oxo-2-[(propan-2-yloxy)methyl]-1,4-dihydropyrimidin-5-yl}sulfonyl)phenyl] pyridine-3-carbonitrile]
